Test results from patent US8337891B2, “Enteric coated composition comprising prostaglandin analogs as chloride channel opener” (Sucampo AG, priority 2003, dated 2012).

Columns and labels:
[1] = ratio of monocyclic/bicyclic tautomer in pH2 solvent by 1H-NMR; assay type: physicochemical
Procedure: The compound 1 (bicyclic structure, solid) was dissolved in D2O—CD3OD(1:1), which was adjusted to pH 2 with DCl. The ratio of monocyclic tautomer/bicyclic tautomer of compound 1 in the pH2 solvent was determined with ^1H-NMR.
According to the same manner described in the test example 2, the ratio of monocyclic tautomer/bicyclic tautomer of compound 2 in pH2 solvent was determined by ^1H-NMR.

[2] = tautomeric form of the solid compound; assay type: physicochemical; settings: provided as a solid compound

Ratio of monocyclic tautomer (%) ([1]; D2O-CD3OD (1:1) adjusted to pH 2 with DCl, 1H-NMR, starting from solid bicyclic tautomer): 8.5%
compound converted into the monocyclic tautomer ([1]; pH2 solvent, bicyclic ring opened): more than 5%
proportion of the compound existing as the bicyclic structure [2]: ~100%
Structure (SMILES): CCCCC(F)(F)[C@@]1(O)CC[C@H]2[C@@H](CC(=O)[C@@H]2CCCCCCC(=O)O)O1 [Compound 1, 13,14-dihydro-15-keto-16,16-difluoro-PGE1]
